# Laboratory results as given in patent US20250276999A1, “PEPTIDES FOR PROMOTING HAIR FOLLICLE NEOGENESIS, AND PREVENTION/MITIGATION OF UNTOWARD EFFECTS OF RADIATION TREATMENT” (Trustees of Tufts College, priority 2022, published 2025).
# Tested on: human hair follicle formation in grafted DECs
# Test: Dermal-epidermal composites (DECs) grafted onto nude mice
# Type: in vivo, NIH(S)-nu/nu female mice
# Experimental: We next asked if TNS peptides could increase human hair follicle formation in grafted dermal-epidermal composite cultures. Human dermal papilla cells isolated from temporal scalp dermis and propagated in vitro. Normal foreskin keratinocytes (NFK) were isolated from neonatal foreskins (pooled from 5-7 donors) and were cultured in serum-free medium supplemented with EGF and bovine pituitary extract. Dermal epidermal composites (DECs) were prepared with human dermal papilla cells and NFK and were grafted onto nude mice. Imaging was done at 4 weeks, 6 weeks, 8 weeks, 10 weeks and 12 weeks and staining for hHLA was performed to evaluate hair follicle anatomy (FIG. 3). TSN peptides increased hair follicle generation (FIG. 3) as well as increased epidermal proliferation in vivo (FIG. 4).
# Dermal-epidermal composites and grafting: Human dermal papilla cells isolated from temporal scalp dermis (Promocell, Heidelberg, Germany) from a donor (HDP47) were propagated in vitro according to manufacturer's recommendations. Normal foreskin keratinocytes (NFK) were isolated from neonatal foreskins (pooled from 5-7 donors) and were cultured in serum-free medium (Keratinocyte-SFM, Invitrogen), supplemented with EGF and bovine pituitary extract according to manufacturer's recommendation. Dermal epidermal composites (DECs) were prepared with human dermal papilla cells and NFK and were grafted onto nude mice. […]
sequence,measurement,setting,value
"HSPDIQLQKGLTFEPIQIK [TSN6, 19 amino acid peptide derived from multimerin-1, Coiled coil domain]",epidermal proliferation in vivo (Ki-67+ cells in epidermis of grafts),"1 μM peptide vs scrambled, P=0.08 (FIG. 4)",stimulates epidermal proliferation
same,human hair follicle formation in grafted DECs,"12 weeks after grafting, human HLA staining, vs TSN6-scrambled (FIG. 3)",increases human hair follicle formation
